According to publication PMC9397875 (PLoS ONE, 2022):

Assays:
[1] = test system: MCF-7 hormone receptor positive breast cancer cells; experiment: Resazurin cytotoxicity assay, MCF-7; assay type: cell-based; conditions: for SI (selectivity index) for MCF-7: IC50 against MCF12A cells ÷ IC50 against MCF-7 cells; for IC50: Homo sapiens, MCF7, MCF-7 cells, 96 hours treatment, resazurin, read-out: MCF-7 IC50 (μM) ± SD
Experimental: (§1) Cytotoxicity and the IC50 of the synthetic compounds were determined using the resazurin assay, [12, 13]. The cancer cells MCF-7 hormone receptor positive breast cancer [estrogen receptor (ER)^+, progesterone receptor (PR)^+, human epidermal growth factor-2 (HER-2)^-; ATCC: HTB-22), HCC70 triple negative breast cancer (TNBC, ER^-, PR^-, HER-2^-; ATCC: CRL-2315) and a non-tumorigenic breast epithelial cell line MCF-12A (ATCC: CRL-10782), were seeded at a density of 5000 cells/well in a 96 well plate and were allowed to adhere overnight at 37°C in a 9% CO2 incubator. The cells were then treated with the synthetic compounds at a concentration range from 15.63–500.00 μM or with a vehicle control [0.2% (v/v) DMSO] for 96 hours at 37°C in a 9% CO2 incubator. Thereafter, […] of resazurin solution was added and the cells were incubated for 2–4 hours at 37°C in a 9% CO2 incubator. The fluorescence was then measured on a Spectramax spectrophotometer with excitation and emission wavelength set at 560 and 590 nm respectively. The experiment was done in technical triplicate and the data were analyzed using GraphPad Prism Inc, (USA) with half-maximal inhibitory concentration (IC50 values) determined by non-linear regression. Selectivity index values for the compounds were calculated as follows: (IC50 of compound against MCF12A cells)÷(IC50 of compound against breast cancer cells) where a SI > 1 is indicative of selective toxicity towards cancer cells vs non-cancerous cells.
(§2) The HCC70 (ATCC-CRL-2315) basal triple-negative breast cancer (TNBC) cell lines and MCF-7 luminal A cancer cell line (ATCC-HTB-22) were purchased from the American Type Culture Collection (ATCC, USA). The MCF-12A breast epithelial cell line (ATCC-CRL-10782) was a gift from Dr Anna-Mart Engelbrecht (Department of Physiology, Stellenbosch University, South Africa).

[2] = test system: HCC70 triple negative breast cancer cells; experiment: Resazurin cytotoxicity assay, HCC70; assay type: cell-based; conditions: for IC50: Homo sapiens, HCC70 cells, 96 hours treatment, resazurin, read-out: HCC70 IC50 (μM) ± SD; for SI (selectivity index) for HCC70: IC50 against MCF12A cells ÷ IC50 against HCC70 cells
Experimental: as §1, §2

[3] = test system: MCF-12A non-tumorigenic breast epithelial cell line; experiment: Resazurin cytotoxicity assay, MCF-12A; assay type: cell-based; conditions: Homo sapiens, MCF-12A cells, 96 hours treatment, read-out: MCF-12A IC50 (μM) ± SD
Experimental: as §1, §2

[4] = test system: colorectal cancer cells (SW-620); design: method as in PMID 16766184; conditions: cytotoxicity; cited from earlier work
[5] = test system: colon cancer cells (SW-620); design: method as in ref 3 = [3]; doi:10.1039/C2MD20172K; 3 Woods JR , Mo H , Bieberich AA , Alavanja T , Colby DA . Amino derivatives of the sesquiterpene lactone class of natural products as prodrugs . Med.Chem.Comm . 2013; 4 ( 1 ): 27 – 33 . doi: 10.1039; conditions: antiproliferative; cited from earlier work
leukemia cells (K562) = test system: leukemia cells (K562); design: method as in ref 3, 19 = [3]; doi:10.1039/C2MD20172K; 3 Woods JR , Mo H , Bieberich AA , Alavanja T , Colby DA . Amino derivatives of the sesquiterpene lactone class of natural products as prodrugs . Med.Chem.Comm . 2013; 4 ( 1 ): 27 – 33 . doi: 10.1039 || [19]; 19 Unde NR , Hiremath SV , Kulkarni GH , Kelkar GR . Amino derivatives of sesquiterpenes lactone class of natural products prodrugs . Tetrahedron Lett . 1968; 9 : 4861 – 4862 .; conditions: antiproliferative; cited from earlier work

SMILES	SI (selectivity index) for MCF-7 [1]	IC50 [2]	SI (selectivity index) for HCC70 [2]	IC50 [3]	IC50 [1]	IC50 [4]	GI50 [5]	GI50 (leukemia cells (K562))
C=C1CC[C@@H]2C(=C)CC[C@H]3[C@@H](OC(=O)[C@H]3CNCC)[C@H]12 [DHLC-3, Guaia-4(15),10(14)-dien-12-oic acid, 13-(ethylamino)-6-hydroxy-γ-lactone]	SI = 8.33	3.25 ± 1.36 µM	SI = 57.91	188.2 ± 1.35 µM	–	–	–	–
C=C1CC[C@@H]2C(=C)CC[C@H]3[C@@H](OC(=O)[C@H]3CN(C)C)[C@H]12 [DHLC-1, Guaia-4(15),10(14)-dien-12-oic acid, 13-(dimethylamino)-6-hydroxy-γ-lactone]	SI = 121	0.64 ± 1.47 µM	SI = 13.23	8.47 ± 1.42 µM	0.07 ± 0.07 µM	–	–	–
CC[C@@]1(O)C(=O)OCc2c1cc1n(c2=O)Cc2cc3ccccc3nc2-1 [Camptothecin, reference compound]	–	83.2 ± 1.08 µM	–	104.2 ± 1.04 µM	104 ± 9.92 µM	–	–	–
C=C1CC[C@H]2C(=C)CC[C@H]3C(=C)C(=O)O[C@@H]3[C@@H]12 [DHLC, Dehydrocostus lactone, reference compound]	–	1.11 ± 1.31 µM	SI = 0.06	0.07 ± 0.07 µM	24.7 ± 1.25 µM	–	–	–
C=C1CC[C@@H]2C(=C)CC[C@H]3[C@@H](OC(=O)[C@H]3CN(CC)CC)[C@H]12 (relative stereo) [DHLC-2, (*3aS,6aR,9aR,9bS*)-3-[(diethylamino)methyl]decahydro-6,9-bis(methylene)azuleno[4,5-b]furan-2(3H)-one]	SI = 126.86	1.48 ± 1.49 µM	SI = 6.00	8.88 ± 1.1 µM	0.07 µM	–	–	–
C=C1C(=O)O[C@@H]2/C=C(\C)CC/C=C(\C)CC[C@@H]12 [costunolide]	–	–	–	–	–	7.8 µM	7.8 µM	14.5 µM
C=C1CC[C@@H]2C(=C)CC[C@H]3[C@@H](OC(=O)[C@H]3CNCCN)[C@H]12 [DHLC-4, 13-ethylenediamine dehydrocostus lactone]	SI = 34.83	2.71 ± 1.3 µM	SI = 54.50	147.7 ± 1.28 µM	4.24 ± 1.29 µM	–	–	–
